Results on 1 compound are retold here after publication PMC9027532, “Preclinical Pharmacokinetic Studies of a Novel Diuretic Inhibiting Urea Transporters” (Molecules, 2022).

The structures appear in SMILES notation.

This data set can be described thus: in vitro. Particulars: plasma. The data set is classed as in vitro ADME. The protocol:
The plasma protein binding (PPB) and blood plasma ratio (BPR) are crucial parameters influencing the drug distribution and elimination in plasma. The PPB profile of 25a was evaluated by equilibrium dialysis, a classic method to assess the interactions of small molecules with proteins. The PPB of 25a was tested at 50, 500, and 2500 ng/mL (Table 7). […] When considering the allometric scaling of PK parameters, the species difference of protein binding between humans and rats should be considered.
The plasma protein binding (PPB) ratio of 25a was assessed via equilibrium dialysis in SD rats and human plasma. Four hundred microliters of plasma containing 50, 500, or 2500 ng/mL 25a were loaded into the dialysis bags (plasma side), and the bags were placed into tubes containing 4 mL of the dialysis buffer (buffer side). The tubes were then rotated at approximately 100 rpm in a humidified incubator with 5% CO2 at 37 ± 1 °C for 5 h.
After the 5 h dialysis, aliquots of 50 μL samples were taken from both the buffer and the plasma sides. An equal volume of the opposite blank matrix (buffer or plasma) was added to each sample to reach a final volume of 100 μL with a volume ratio of plasma to dialysis buffer at 1:1 (v/v). […] The PPB ratio (%) was calculated by PPB% = 100% × (1 − Conc.buffer side/Conc.plasma side).

The compound `CC(=O)CC(c1ccccc1)c1c(O)c2ccccc2oc1=O` (stereo not shown) [warfarin] had a fraction unbound at 5 h of 0.015.
